Data set [1] concerns THP1-differentiated macrophages. As to the kind of experiment: Toxicity of aurones on THP1-differentiated macrophages (MTT assay). The settings on record: for IC50: Homo sapiens, Macrophage, 72 h incubation, MTT assay, cytotoxicity; for toxicity to mammalian (THP1) cells, in words: THP1-differentiated macrophages. The data set is classed as cell-based, human. The protocol:
The human leukaemia monocyte THP1 cell line was cultured as a monolayer at 37°C in a humidified atmosphere containing 5% CO2. Cells were grown in RPMI 1640 medium, supplemented with 10% heat-inactivated FBS, 2 mM L-glutamine, 100 U/mL penicillin, and 100 μg/mL streptomycin, and were maintained in culture, by subpassage every 3 days.
For macrophage differentiation, human leukaemia monocyte cell line (THP-1 cells) cells were incubated in the presence of 20 ng/ml phorbol 12-myristate 13-acetate (PMA, Sigma-Aldrich) for 18 h at 37°C, 5% CO2, and left another 24 h with fresh medium containing no PMA to induce maturation. Serial dilutions of each aurone, ranging from 100 to 1.56 μM in culture media, were added to the wells, in quadruplicate, and incubated for 72 h at 37°C, 5% CO2. Cell viability was assessed by the MTT assay, as described before.
The IC50 value, that is, the concentration of the aurone necessary to decrease cell viability to 50% of the untreated control, was determined by linear regression analysis.

The subject of data set [2] is L. infantum intracellular amastigotes. As to the kind of experiment: Growth inhibition of luciferase-expressing L. infantum intracellular amastigotes in THP1-differentiated macrophages. Format: cell-based, Leishmania infantum. Particulars: for IC50: Leishmania infantum, Macrophage, 72 h incubation, luciferase activity, infected THP1-differentiated macrophages. The protocol: A cloned line of L. infantum (MOM/MA671 TMAP263) promastigotes, stably expressing the luciferase gene (LUC), was grown in RPMI 1640 medium (Bio Whitaker, Belgium) supplemented with 10% heat-inactivated fetal bovine serum (FBS) (Bio Whitaker, Belgium), 2 mML-glutamine (Bio Whitaker, Belgium), 20 mM Hepes (Bio Whitaker, Belgium), 100 U/mL penicillin, and 100 μg/mL streptomycin (Bio Whitaker, Belgium). Selection of LUC positive parasites was done by adding geneticin-sulphate (Sigma-Aldrich, USA) to the culture media at a final concentration of 5 μg/mL. Parasites were maintained in culture, at 26°C by subpassage ([…]) at every 5 days.
L. infantum axenic amastigotes, stably expressing the LUC gene were derived from promastigotes by culturing them in MAA (Medium for Axenic Amastigotes) culture medium. MAA consisted of a modified medium 199 with Hanks balanced salt solution (Gibco-Invitrogen, Spain) supplemented with 0.5% soya broth trypto-casein (Bio-Rad, UK), 15 mM D-glucose (Panreac, Spain), 4 mM NaHCO3 (Sigma-Aldrich, USA). The pH was adjusted to 5.8, and the media was 0.2 μm sterilized by filtration and further supplemented with 0.023 mM bovine hemin (Fluka, USA), 5 mM L-glutamine, and 25% of heat inactivated FBS. Amastigotes were maintained in culture, at 37°C in an atmosphere containing 5% CO2 by subpassage (10^5 parasites/mL), at every 5 days.
THP1-differentiated macrophages were infected for a period of 4 h with stationary phase LUC expressing, L. infantum axenic amastigotes, at a 5 : 1 parasite to cell ratio. After the infection period, cells were washed with culture media to remove noninternalized parasites. Serial dilutions of the aurones, ranging from 50 to 0.78 μM in culture media, were added to the wells, in quadruplicate, and incubated for 72 h at 37°C, 5% CO2. After the incubation period, the luciferase activity of intracellular amastigotes was determined as described before. The percentage of growth inhibition was calculated as described above.

Where [3] appears, read: ratio of IC50 on THP1-differentiated macrophages to IC50 on intracellular parasite.

SMILES strings stand for the structures. Where two headings read alike, the source gives them in different places.

One may read the IC50 as the point on the concentration scale where inhibition reaches its midpoint. Compound `C[C@@H]1[C@H](O)[C@@H](C)/C=C/C=C/C=C/C=C/C=C/C=C/C=C/[C@H](O[C@@H]2O[C@H](C)[C@@H](O)[C@H](N)[C@@H]2O)C[C@@H]2O[C@](O)(C[C@@H](O)C[C@@H](O)[C@H](O)CC[C@@H](O)C[C@@H](O)CC(=O)O[C@H]1C)C[C@H](O)[C@H]2C(=O)O` [Amphotericin B, reference compound] displayed an IC50 in data set [1] of 23.8 ± 2.3 µM. In data set [2], the “Selectivity index (SI)” value is on record as 20.6 and the IC50 was found to be 1.2 ± 0.1 µM.

In data set [1], `COc1ccc(/C=C2\Oc3ccccc3C2=O)cc1` [Compound 4a] came in with a half-maximal inhibitory concentration (IC50) of 16.5 ± 3.1 µM.

For the compound `Cc1ccc(/C=C2\Oc3ccccc3C2=O)cc1` [Compound 4b], in data set [1], half-maximal inhibition (IC50) required 8.5 ± 0.8 µM.

In turn, `O=C1/C(=C/c2ccc(Cl)cc2)Oc2ccccc21` [Compound 4c] displayed a half-maximal inhibitory concentration (IC50) in data set [1] of 14.5 ± 2.1 µM.

As for `COc1ccccc1/C=C1\Oc2ccccc2C1=O` [Compound 4d], in data set [1], it took 17.5 ± 3.1 µM to reach half-maximal inhibition (IC50).

With `COc1cccc(/C=C2\Oc3ccccc3C2=O)c1` [Compound 4e], the half-maximal inhibitory concentration (IC50) in data set [1] is 54.2 ± 7.3 µM; in data set [2], 4.7 ± 0.5 µM. Moreover, in data set [1], the “toxicity to mammalian (THP1) cells, in words” value was “did not show significant toxicity”. Further, in data set [2] (setting [3]), the “Selectivity index (SI)” value was 11.5.

In turn, `COc1ccc(/C=C2\Oc3ccccc3C2=O)cc1OC` [Compound 4f] gave a concentration for half-maximal inhibition (IC50) in data set [1] of 20.5 ± 1.2 µM.

In turn, `COc1ccc(/C=C2\Oc3cc(OC)cc(OC)c3C2=O)cc1` [Compound 4h] returned an IC50 in data set [1] of 19.6 ± 2.5 µM.

`COc1cc(OC)c2c(c1)O/C(=C\c1ccccc1OC)C2=O` [Compound 4i, 2′,4,6-trimethoxyaurone]: the IC50 came to 75.4 ± 4.7 µM in data set [1] and 1.3 ± 0.1 µM in data set [2]. In data set [2] (setting [3]), the “Selectivity index (SI)” value was determined as 57.5.

As usually defined, the melting point is the temperature of the solid-liquid transition. Compound `COc1cc(OC)c2c(c1)O/C(=C\c1ccccc1C)C2=O` [Compound 4j, 4,6-Dimethoxy-2′-methylaurone] registered a melting point of 180 to 183 °C. The compound further registered a half-inhibitory concentration (IC50) in data set [1] of 68.1 ± 2.1 µM. Moreover, half-maximal inhibition in data set [2] (IC50) required 1.6 ± 0.2 µM. For the same compound, the “Selectivity index (SI)” value in data set [2] (setting [3]) is 43.4.

As to `COc1cc(OC)c2c(c1)O/C(=C\c1ccccc1Cl)C2=O` [Compound 4k, 4,6-Dimethoxy-2′-chloro-aurone], the melting point is 191 to 193 °C. Also, in data set [1], the half-inhibitory concentration (IC50) is over 100 µM and the “toxicity to mammalian (THP1) cells, in words” value is “not toxic to mammalian cells”. This compound came in with a concentration for half-maximal inhibition (IC50) in data set [2] of 12.2 ± 1.4 µM. Besides, the “Selectivity index (SI)” value in data set [2] (setting [3]) was over 8.2.

Compound `COc1cc(OC)c2c(c1)O/C(=C\c1ccccc1)C2=O` [Compound 4l, 4,6-Dimethoxyaurone] had a melting point of 139 to 142 °C. In addition, in data set [1], half-maximal inhibition (IC50) required 57.5 ± 3.4 µM. Also, the IC50 in data set [2] came out at 2.1 ± 0.9 µM. The “Selectivity index (SI)” value in data set [2] (setting [3]) is given as 26.9.

Values taken from paper PMC4207450, “Aurones: A Promising Heterocyclic Scaffold for the Development of Potent Antileishmanial Agents” (International Journal of Medicinal Chemistry, 2012).
